Source: PubChem BioAssay AID2305 (GlaxoSmithKline (GSK), 2010)

These molecules were tested on P. falciparum 3D7 growth, pLDH absorbance (assay: P. falciparum 3D7 growth inhibition, dose response, strain 3D7 (AID 2305)).
Work on `Cn1nc(-c2ccccc2F)c2cc(C(=O)NC3CCN(Cc4ccccc4)CC3)sc21` yielded an IC50 of 790 nM. `CNC(=O)c1ccc2[nH]cc(C3CCN(CC4CCC(NC(=O)/C=C/c5ccc(Cl)c(Cl)c5)CC4)CC3)c2c1` (stereo unspecified) was tested, and the IC50 was 1010 nM. Work on `C=CCc1cc(SC)ccc1Oc1ccc(N)cc1` yielded an IC50 of 740 nM. For `FC(F)(F)c1cc(Nc2ccc(Oc3ccccc3)cc2)c2cc(-c3ccncc3)ccc2n1`, the IC50 was 450 nM. `N#Cc1ccc(-c2ccc(C(=O)NCCCCN3CCC(c4ccc5c(c4OCc4ccccn4)CCCC5)CC3)cc2)cc1` was tested, and the IC50 was 820 nM. `CCN(CC)CCCC(C)Nc1c2ccccc2nc2ccc3ccccc3c12` (stereo unspecified) gave an IC50 of 1040 nM. For `Cc1cc(NCCCCCCNc2cc(C)nc3c(C)cccc23)c2cccc(C)c2n1`, the IC50 was 410 nM. `O=C(c1cccc(-c2noc(C(F)(F)F)n2)c1)N1CCN(C(=O)c2ccc3cc[nH]c3c2)CC1` showed an IC50 of 110 nM. Work on `COc1cc(NC(=O)N2CCc3ccc(OCCC4CCCN4C)cc32)cc(C(F)(F)F)c1` (stereo unspecified) yielded an IC50 of 710 nM. `CN(CCN(C)CC(O)c1ccc(Cl)c(Cl)c1)CC(O)c1ccc(Cl)c(Cl)c1` (stereo unspecified) showed an IC50 of 1100 nM. With `N#Cc1cccc(Nc2ncc3c(-c4cccc(NC(=O)Cc5cccc(Cl)c5)c4)c[nH]c3n2)c1` the IC50 was 420 nM. For `COc1ccc(-c2ccc(CN(C)C3CCC(NC(=O)c4cc5ccccc5[nH]4)CC3)cc2)cn1` (stereo unspecified), the IC50 was 870 nM. Molecule `Cc1cccc2[nH]c(-c3ccc(-c4cccc(NC(=O)NCc5ccccc5)c4)cc3)nc12` has an IC50 of 780 nM. Work on `c1ccc(CNc2nc(NCCN3CCCCC3)nc3ccccc23)cc1` yielded an IC50 of 1020 nM. In the case of `CCCC(=O)Nc1ccc(Nc2nc(C)cc(N3CCCC3)n2)cc1`, the IC50 is reported as 1490 nM. With `CCOc1c(OC)ccc2c1CCN(CCN1CCC(CNC(=O)c3ccc(-c4ccc(C(F)(F)F)cc4)cc3)CC1)C2` the IC50 was 850 nM. `CCCCc1ccc(-c2ccc(-c3c(C)[nH]c(C)c(Br)c3=O)cn2)cc1` was tested, and the IC50 was 60 nM. Molecule `CCCC1N=C(N)N=C(N)N1c1cccc([N+](=O)[O-])c1` (stereo unspecified) has an IC50 of 760 nM. `C/C=C1/CN2CC[C@H]1C[C@H]2[C@H](O)c1ccnc2ccc(OC)cc12` gave an IC50 of 200 nM. `O=C(Nc1ccc(-c2ccccc2)c(OCCN2CCNCC2)c1)c1ccc(-c2ccc(Cl)cc2)cc1` gave an IC50 of 780 nM. `Cc1c(CC(=O)NCCC2CCN(CCCCCNC(=O)/C=C/c3ccc(Cl)c(Cl)c3)CC2)sc2ccc(Cl)cc12` gave an IC50 of 880 nM. Work on `CN1CCCCC1CCc1cc(C(=O)Nc2ccc(-c3ccc(O)cc3)cc2)ccc1O` (stereo unspecified) yielded an IC50 of 1110 nM. With `CS(=O)(=O)Cc1ccc(Nc2nccc(N3CCCc4cc(NC(=O)Nc5cccc(C(F)(F)F)c5)ccc43)n2)cc1` the IC50 was 150 nM. `N#Cc1ccc2c(c1)CCN(CCC1CCC(NC(=O)/C=C/c3cc(Br)cs3)CC1)CC2` (stereo unspecified) gave an IC50 of 1000 nM. `CC(C)c1cccc(OCC2CCN(c3ccc(C(=O)Nc4ccccc4)cn3)CC2)c1` was tested, and the IC50 was 700 nM. Work on `CC(Cc1ccc(Sc2ccccc2)cc1)NCC(O)c1cccc(C(F)(F)F)c1` (stereo unspecified) yielded an IC50 of 590 nM. `COc1ccc2nccc([C@@H](O)CN3CCC(NC(=O)C(c4cc5ccccc5s4)N4CCN(c5ccccc5OC)CC4)CC3)c2c1` (stereo partly specified) showed an IC50 of 160 nM. `CCOc1ccccc1C1CCN(CCCCNC(=O)c2ccc(NC(=O)c3ccc(Cl)cc3)cc2)CC1` gave an IC50 of 850 nM. Molecule `N#Cc1ccc(N(CCOc2ccc3c(c2)CCC(=O)N3)Cc2ccccc2C(F)(F)F)cc1C(F)(F)F` has an IC50 of 760 nM. With `Cc1ccc2[nH]c(-c3ccc(C(=O)NC4CCN(Cc5ccccc5)CC4)cc3)nc2c1C` the IC50 was 730 nM. `Cc1cccc2[nH]c(-c3cccc(-c4cccc(NC(=O)NCc5ccccc5)c4)c3)nc12` was tested, and the IC50 was 520 nM. Molecule `O=C(Nc1cccc(C(F)(F)F)c1)N1CCOC(CCN2CCC(c3ccccc3)CC2)(c2ccc(Cl)c(Cl)c2)C1` (stereo unspecified) has an IC50 of 1110 nM. Molecule `COc1ccc(Nc2nc(N3CCCC3)c3ccccc3n2)cc1` has an IC50 of 750 nM. With `CCc1ccc(NC(=O)c2ccc(CN3CCCN(CC4CCCCC4)CC3)cc2)cc1` the IC50 was 710 nM. `FC(F)(F)COc1c(CCNCCCCNCCc2ccc3ccccc3c2OCC(F)(F)F)ccc2ccccc12` showed an IC50 of 350 nM. With `CN(c1ccc(NC(=O)Nc2cc(C(C)(C)C)on2)cc1)c1ccnc(NCCOC(=O)Nc2cc(C(C)(C)C)on2)n1` the IC50 was 750 nM. In the case of `CCOC(=O)c1cn(CC)c2cc(F)c(OC3C[C@@H]4CC[C@@]3(C)C4(C)C)cc2c1=O` (stereo partly specified), the IC50 is reported as 930 nM. Work on `CN1CCC(NCc2ccc(S(=O)(=O)Nc3ccc(Oc4cccc(Cl)c4)cc3)cc2)CC1` yielded an IC50 of 740 nM. For `O=C(Nc1cccc(C2=NCCCN2)c1)Nc1cccc(C2=NCCCN2)c1`, the IC50 was 560 nM. Molecule `Cc1[nH]nc2ccc(-c3ccc4nccc(N5CCC(N)CC5)c4c3)cc12` has an IC50 of 590 nM. With `Cn1cncc1C(=O)Nc1cccc(-c2ccc(-c3nc4ccc(F)cc4[nH]3)s2)c1` the IC50 was 870 nM. With `COc1ccccc1Cn1ccnc1SCC(=O)Nc1cccc(C(F)(F)F)c1` the IC50 was 910 nM. `CCc1c[nH]c2c(N3CCCS3(=O)=O)cc(C(=O)N[C@@H](Cc3ccccc3)[C@H](O)CNC(C)(C)c3cccc(C(F)(F)F)c3)cc12` gave an IC50 of 230 nM. `CCC(C)CN1CCC(N(C)c2cc(NC(=O)c3ccc(F)cc3)ccn2)CC1` (stereo unspecified) gave an IC50 of 980 nM. In the case of `COc1ccc2c(Nc3ccc(N4CCN(C)CC4)cc3)cc(C)nc2c1`, the IC50 is reported as 720 nM. With `CC(C)N1CCN(CCCCNc2c3ccccc3nc3ccccc23)CC1` the IC50 was 540 nM. With `COc1ccc(C2C(C(=O)Nc3cc(Cl)c(OC)cc3OC)c3ccccc3C(=O)N2C)cc1` (stereo unspecified) the IC50 was 820 nM. In the case of `CC(C)(C)c1nn(-c2ccccc2)c2[nH]c(=O)c(CNCc3ccccc3)cc12`, the IC50 is reported as 1050 nM. `COc1cc(NCC2(CNCc3cn(Cc4ccccc4)c4ccccc34)CCCCC2)nc2ccccc12` was tested, and the IC50 was 950 nM. With `COC(=O)c1ccc(CC(C)NCC(O)c2cccc(C(F)(F)F)c2)cc1F` (stereo unspecified) the IC50 was 1060 nM. With `CCN(Cc1ccc(-c2ccc(C(F)(F)F)cc2)cc1)C(=O)Cn1c(SCc2cccc(F)c2F)cc(=O)c2cc(CN3CCCCC3)ccc21` the IC50 was 800 nM. Molecule `COc1ccc(N2CCN(CCCCNC(=O)c3ccc(/C=C/c4ccc(Cl)c(Cl)c4)cc3)CC2)c(OC)c1` has an IC50 of 710 nM. Work on `CN(C)S(=O)(=O)c1ccc(N2CCN(CCC3(c4cccc(F)c4)CCN(C(=O)C(C)(C)C)CC3)CC2)c2nonc12` yielded an IC50 of 700 nM. `COc1ccc(NC(=O)c2ccc(-c3ccc(-c4cccnc4)cc3)c(C)c2)cc1OCCN(C)C` was tested, and the IC50 was 200 nM. Molecule `Cc1cc(NC(=O)NCCN2CCC(NC(=O)c3ccc(C(F)(F)F)cc3)CC2)c2ccccc2n1` has an IC50 of 410 nM. In the case of `O=C(NCCN1CCOCC1)c1ccc(CNC(=O)c2ccc(O)c(-c3ccc(Cl)c(Cl)c3)c2)cc1`, the IC50 is reported as 930 nM. Molecule `Cc1cccc2[nH]c(-c3ccc(-c4cccc(CNCCCNS(C)(=O)=O)c4)cc3)nc12` has an IC50 of 1220 nM. Molecule `CC(C)NCc1cccc(-c2cccc(-c3nc4ccccc4[nH]3)c2)c1` has an IC50 of 800 nM. With `Cc1cccc2[nH]c(-c3ccc(-c4cccc(CN5CCCC(N)C5)c4)s3)nc12` (stereo unspecified) the IC50 was 540 nM. For `Oc1ccc(CCNCCCCCCNCCc2ccc(Cl)c(Cl)c2)cc1O`, the IC50 was 730 nM. With `COc1cccc(CN2CCC(CCOC(c3ccccc3)c3ccc(Cl)cc3)CC2)c1O` (stereo unspecified) the IC50 was 710 nM. `O=C(NOCc1ccccc1)c1cc(Cl)ccc1O` gave an IC50 of 1100 nM. `COc1ccc(NS(=O)(=O)c2ccc(C(=O)Nc3ccc(OC(F)(F)F)cc3)cc2)cc1N1CCN(CC2CC2)CC1` showed an IC50 of 1000 nM. `Cc1cc(N(C)C)nc(Nc2ccc(NC(=O)C3CCCCC3)cc2)n1` showed an IC50 of 1110 nM. Molecule `CCN(CCO)Cc1ccc(-c2ccc(NS(=O)(=O)c3cccc4cccnc34)cc2)cc1` has an IC50 of 990 nM. `CN(C)CCN(Cc1ccccc1-c1ccc(CNCCc2ccccc2)cc1)C(=O)NC1CCCCC1` was tested, and the IC50 was 910 nM. `COc1cc2sc(=NC(=O)c3cccc([N+](=O)[O-])c3)n(C)c2cc1OC` showed an IC50 of 720 nM. `COc1ccc2nccc([C@@H](O)CNCCCN(C)CCOc3cc(F)cc(F)c3)c2c1` gave an IC50 of 790 nM. Molecule `Cc1[nH]c2c(C)cccc2c1C1CCN(CCC2CCN(C(=O)/C=C/c3ccc(Cl)c(Cl)c3)CC2)CC1` has an IC50 of 640 nM. In the case of `C=CCOC(=O)N1CCC(CNCc2ccc(-c3ccc(-c4nc5ccc(C(F)(F)F)cc5[nH]4)cc3)cc2)C1` (stereo unspecified), the IC50 is reported as 150 nM. `O=C(NCCc1ccccc1)[C@H](Cc1ccccc1)Nc1ccnc(NCC2CCCCC2)n1` gave an IC50 of 1380 nM. Molecule `O=C1c2ccccc2C(=O)N1CCOc1c(Br)cc(Br)cc1CNCCCNc1cc(=O)c2ccccc2[nH]1` has an IC50 of 840 nM. `Clc1cccc(C=NNc2ccnc3ccccc23)c1` was tested, and the IC50 was 850 nM. `Cc1nc(N)nc(N)c1-c1ccc(Br)cc1` was tested, and the IC50 was 230 nM. In the case of `Cc1cccc2[nH]c(-c3cccc(-c4cccc(CNCc5ccccc5)c4)c3)nc12`, the IC50 is reported as 390 nM. `CCCCC(CC)C(=O)C(NC(=O)[C@H](CSC(c1ccccc1)(c1ccccc1)c1ccccc1)NC(=O)OC(C)(C)C)C(=O)OC` (stereo partly specified) gave an IC50 of 1020 nM. `CC(C)CNCc1cccc(-c2cccc(CN(CCCN3CCN(C)CC3)C(=O)CCC3CCCC3)c2)c1` was tested, and the IC50 was 620 nM. `Cc1ccc(S(=O)(=O)N(CCCNCc2cccc(O)c2)c2ccccc2)cc1` gave an IC50 of 770 nM. `CCOc1cc2c(cc1OCC)C(c1ccc(O)c(Cl)c1)NCC2` (stereo unspecified) showed an IC50 of 790 nM. Work on `CC1(C)N=C(N)N=C(N)N1c1cccc(C(F)(F)F)c1` yielded an IC50 of 10 nM. `Cc1cc(C2CCN(CCCCNC(=O)c3ccc(NC(=O)c4ccc(Cl)cc4)cc3)CC2)c(C)cc1OCc1ccncc1` was tested, and the IC50 was 500 nM. Work on `CCn1c(-c2nonc2N)nc2c(C#CC(C)(C)O)ncc(OCCNCCc3ccc(OC)cc3)c21` yielded an IC50 of 960 nM. `Cc1ccc(Nc2nc(C)cc(N3CCN(CCc4ccccc4)CC3)n2)cc1` showed an IC50 of 970 nM. `OCCN1CCN(Cc2ccc(-c3ccc(-c4nc5ccc(C(F)(F)F)cc5[nH]4)s3)cc2)CC1` showed an IC50 of 380 nM. `Cc1cc(NCCc2ccccc2)nc(/N=C(\N)Nc2cccc(F)c2)n1` showed an IC50 of 900 nM. `CC(C)(C)Oc1ccc(C[C@@H]2NC3(C(=O)N(Cc4ccc(Cl)c(Cl)c4)c4ccccc43)C3C(=O)N(c4ccc(Br)cc4)C(=O)C32)cc1` (stereo partly specified) was tested, and the IC50 was 1040 nM. For `CCC(CC)n1cc2c(ccc3nc(N)nc(N)c32)n1`, the IC50 was 80 nM. `Cc1cc(N2CCCC2=O)ccc1-c1ccc(C(=O)N2CCC(Oc3cccc(Cl)c3)CC2)cc1` showed an IC50 of 430 nM. Molecule `FC(F)(F)c1cccc(-c2cc(NCCCn3ccnc3)nc(-c3ccncc3)n2)c1` has an IC50 of 110 nM. `Cc1[nH]cc(Br)c(=O)c1-c1ccc(Oc2ccccc2)cc1` was tested, and the IC50 was 680 nM. In the case of `Cc1ccc(C(=O)Nc2cccc(CN3CCCN(Cc4ccc(O)cc4)CC3)c2)cc1`, the IC50 is reported as 1090 nM. With `CC(C)(CN)c1nc(-c2ccc(Cl)c(O)c2)c(-c2ccncc2)[nH]1` the IC50 was 760 nM. For `CN(C)Cc1c(O)ccc2[nH]c(-c3ccc(OC(F)(F)F)cc3)nc12`, the IC50 was 730 nM. `CCC(C)CNC(=O)CN1CN(c2ccccc2)C2(CCN(C(=O)c3ccc(Br)cc3)CC2)C1=O` (stereo unspecified) was tested, and the IC50 was 1070 nM. For `Oc1ccc(CCCc2cc(Oc3c(I)cc(CCc4ncc[nH]4)cc3I)ccc2O)cc1`, the IC50 was 870 nM. `COc1cccc(-c2ccc(O)c(CNCCc3cccc(F)c3)c2)n1` showed an IC50 of 910 nM.
